Experimental data reported in patent publication US12679878B2, “CRF2 receptor agonists and their use in therapy” (SANOFI, priority 2020, dated 2026).
Like-named read-outs stand apart in the source and are kept apart here. Starred links: 1 amine or outer side, 2 acyl side, 3 side chain; linkers in the order of their positions; H or OH if unused. Residues, ends and D or L forms follow the SMILES beside them. Groups on a side chain read outwards from the residue. *: point of attachment. C20 diacid = O=C(O)CCCCCCCCCCCCCCCCCCC(=O)*; C18 diacid = O=C(O)CCCCCCCCCCCCCCCCC(=O)*; γGlu = O=C(O)[C@H](CCC(=O)[*:2])N[*:1]; AEEA = NCCOCCOCC(=O)O

Tests used:
recombinant human CRF2 = molecular target: T1, recombinant human CRF2 (Homo sapiens, UniProt Q13324); experiment: CRF2a (h) agonist radioligand binding, [125]sauvagine, HEK cell membranes (Example 11); details: competition with [125]sauvagine 0.1 nM
T1 construct: expressed in transfected cells; host or cells: HEK
T1 sequence (Q13324 1-411): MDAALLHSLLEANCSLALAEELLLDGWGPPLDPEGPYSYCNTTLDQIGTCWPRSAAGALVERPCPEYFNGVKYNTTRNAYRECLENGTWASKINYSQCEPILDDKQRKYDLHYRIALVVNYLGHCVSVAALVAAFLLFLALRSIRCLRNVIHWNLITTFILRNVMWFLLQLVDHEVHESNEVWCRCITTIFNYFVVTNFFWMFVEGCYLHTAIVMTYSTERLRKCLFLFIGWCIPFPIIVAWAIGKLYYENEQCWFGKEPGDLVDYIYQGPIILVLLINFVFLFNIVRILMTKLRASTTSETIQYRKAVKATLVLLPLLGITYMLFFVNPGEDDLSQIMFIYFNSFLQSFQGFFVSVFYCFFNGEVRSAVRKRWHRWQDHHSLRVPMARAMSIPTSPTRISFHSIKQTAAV
Experimental: Receptor binding of the compounds was assessed using a CRF2a (h) (agonist radioligand) assay.
HEK cells expressing recombinant human CRF2 were used as a source of receptor for membrane preparation.
IC50 values (concentration causing a half-maximal inhibition of control specific binding) and Hill coefficients (nH) were determined by non-linear regression analysis of the competition curves generated with mean replicate values using Hill equation curve fitting. The inhibition constants (Ki) were calculated using the Cheng Prusoff equation [Ki=IC50/(1+L/KD) where L is the concentration of radioligand in the assay, and KD is the affinity of the radioligand for the receptor). A Scatchard plot was used to determine the KD.

CRF1R receptor = molecular target: T2, CRF1R receptor (Homo sapiens, UniProt P34998); experiment: cAMP activity at anti-target CRF1R, CRF1R-overexpression CHO cell line (Example 9); format: cell-based
T2 construct: host or cells: CHO-K1 clone 2
T2 sequence (P34998 24-415): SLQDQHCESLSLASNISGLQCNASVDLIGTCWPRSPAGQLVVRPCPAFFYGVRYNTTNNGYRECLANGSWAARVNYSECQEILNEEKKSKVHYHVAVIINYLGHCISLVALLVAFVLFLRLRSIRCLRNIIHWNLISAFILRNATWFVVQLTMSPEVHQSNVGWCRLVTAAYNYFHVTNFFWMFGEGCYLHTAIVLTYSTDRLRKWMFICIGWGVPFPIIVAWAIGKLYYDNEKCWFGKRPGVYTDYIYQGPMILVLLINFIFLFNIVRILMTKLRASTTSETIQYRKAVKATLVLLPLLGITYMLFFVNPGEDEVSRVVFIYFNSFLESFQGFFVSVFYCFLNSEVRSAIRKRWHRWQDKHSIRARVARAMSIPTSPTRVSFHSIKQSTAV
Procedure, shortened: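 cAMP accumulation was read by HTRF after 30 min at room temperature of compound treatment. Cells were cryopreserved CHO cells overexpressing CRF1R, plated at 2000/well in IBMX (2 mM)-containing HBSS/HEPES buffer with 0 or 0.1% HSA. Activity was normalized to 1000 nM UCN2 as 100%.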

[1] = Physical stability, Thioflavin T fibrillation assay (Example 14); format: physicochemical; details: 3 mg/ml, 37° C. shaking
Procedure, shortened: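 Compounds at 3 mg/ml final in buffer were stressed at 37° C by repeated cycles of 10 s shaking at 960 rpm and 50 s rest. ThT fluorescence was read every 20 minutes in eight replicates, with fluorescence increase and lag time indicating fibrillation tendency.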

human CRF2α receptor = molecular target: T3, human CRF2α receptor (Homo sapiens, UniProt Q13324); experiment: cAMP agonism at human CRF2 α receptor in TeloHEAC cells (Example 7); format: cell-based; details: cAMP HTRF, TeloHEAC cells stably expressing human CRF2 α
T3 construct: expressed in transfected cells; host or cells: TeloHEAC
T3 sequence (Q13324 1-411): T1 sequence (Q13324 1-411)
Procedure, shortened: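 Percent activation was referenced to 1000 nM UCN2 (100%), and EC50 values taken as concentrations giving half of maximal response. The read-out was a homogeneous time-resolved fluorescence cAMP kit, fluorescence ratio 665/620 nm. Thawed cells (2000/well) saw compound for 30 min at RT in buffer with 2 mM IBMX and 0%/0.1% HSA.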

[2] = Buffer A: 100 mM acetate buffer, pH 4.5
[3] = Buffer B: 100 mM acetate buffer, pH 4.5, 2.7 mg/ml m-cresol
[4] = 0% HSA, read-out: EC50 [nM], 0% HSA
[5] = 0.1% HSA, read-out: EC50 [nM], 0.1% HSA

EC50 (CRF1R receptor; 0% HSA, CRF1R-overexpression CHO cell line) [nM] | Emax (CRF1R receptor; CRF1R-overexpression CHO cell line, read-out: Emax (%)) [%] | Increase in FI (fluorescence intensity) [1, 2] | Lag time [1, 2] [h] | Increase in FI (fluorescence intensity) [1, 3] | Lag time [1, 3] [h] | SMILES | nH (Hill coefficient) (recombinant human CRF2) | EC50 (human CRF2α receptor; [4]) [nM] | EC50 (human CRF2α receptor; [5]) [nM] | Emax (CRF1R receptor; CHO) [%]
> 1000 | 1.77 | No | >45 | No | >45 | CC[C@H](C)[C@H](N)C(=O)N[C@H](C(=O)N[C@@H](CC(C)C)C(=O)N[C@@H](CO)C(=O)N[C@@H](CC(C)C)C(=O)N[C@@H](CC(=O)O)C(=O)N[C@H](C(=O)N1CCC[C@H]1C(=O)N[C@H](C(=O)N[C@@H](CCCCN)C(=O)N[C@@H](CC(C)C)C(=O)N[C@@H](CCCCNC(=O)COCCOCCNC(=O)COCCOCCNC(=O)CC[C@H](NC(=O)CCCCCCCCCCCCCCCCC(=O)O)C(=O)O)C(=O)N[C@@H](CCCCN)C(=O)N[C@H](C(=O)N[C@@H](CC(C)C)C(=O)N[C@@H](CC(C)C)C(=O)N[C@@H](CCC(=O)O)C(=O)N[C@@H](CCC(N)=O)C(=O)N[C@@H](CCC(=O)O)C(=O)N[C@@H](CCCCN)C(=O)N[C@@H](CCC(N)=O)C(=O)N[C@@H](CCCCN)C(=O)N[C@@H](CCCCN)C(=O)N[C@@H](CCC(N)=O)C(=O)N[C@@H](CCCNC(=N)N)C(=O)N[C@@H](CCC(=O)O)C(=O)N[C@@H](CCC(N)=O)C(=O)N[C@@H](C)C(=O)N[C@@H](CCC(=O)O)C(=O)N[C@H](C(=O)N[C@@H](CC(N)=O)C(=O)N[C@@H](CCCCN)C(=O)N[C@@H](CCC(N)=O)C(=O)N[C@H](C(=O)N[C@@H](CC(C)C)C(=O)N[C@@H](C)C(=O)N[C@@H](CCC(N)=O)C(=O)N[C@H](C(N)=O)C(C)C)[C@@H](C)CC)[C@@H](C)O)[C@@H](C)CC)[C@@H](C)CC)C(C)C)C(C)C [compound 35] (H-IVLSLDVPIKLK([AEEA-AEEA-γGlu-C18 diacid])KILLEQEKQKKQREQAETNKQILAQV-NH2; N-terminus assumed) | 1.7 | 0.24 | 3.82 | –
– | – | – | – | – | – | CC[C@H](C)[C@H](NC(=O)[C@H](CCC(N)=O)NC(=O)[C@H](CCC(=O)O)NC(=O)[C@H](CC(C)C)NC(=O)[C@H](CC(C)C)NC(=O)[C@H](CCC(N)=O)NC(=O)[C@H](CCCCN)NC(=O)[C@H](CC(N)=O)NC(=O)[C@H](CCCCN)NC(=O)[C@H](CCC(=O)O)NC(=O)[C@H](C)NC(=O)[C@H](CCC(N)=O)NC(=O)[C@H](CCC(N)=O)NC(=O)[C@H](CCCNC(=N)N)NC(=O)[C@H](CCC(=O)O)NC(=O)[C@H](CCCCN)NC(=O)[C@H](CCCCN)NC(=O)[C@H](CCC(N)=O)NC(=O)[C@H](CCCCN)NC(=O)[C@H](CCC(N)=O)NC(=O)[C@H](CCC(N)=O)NC(=O)[C@H](CCCCN)NC(=O)[C@H](CC(C)C)NC(=O)[C@H](CC(C)C)NC(=O)[C@@H](NC(=O)[C@H](CCC(N)=O)NC(=O)[C@H](CCCCNC(=O)COCCOCCNC(=O)COCCOCCNC(=O)CC[C@H](NC(=O)CCCCCCCCCCCCCCCCCCC(=O)O)C(=O)O)NC(=O)[C@@H](NC(=O)[C@H](CCCCN)NC(=O)[C@@H](NC(=O)[C@@H]1CCCN1C(=O)[C@@H](NC(=O)[C@H](CC(=O)O)NC(=O)[C@H](CC(C)C)NC(=O)[C@H](CO)NC(=O)[C@H](CC(C)C)NC(=O)[C@@H](NC(=O)[C@@H](N)Cc1ccccc1)[C@@H](C)O)C(C)C)[C@@H](C)O)[C@@H](C)CC)[C@@H](C)CC)C(N)=O [compound 59] (H-FTLSLDVPTKIK([AEEA-AEEA-γGlu-C20 diacid])QILLKQQKQKKERQQAEKNKQLLEQI-NH2) | 0.6 | 0.15 | 17.4 | 11.1
